Laboratory results as given in patent US12545639B2, “3-substituted phenylamidine compounds, preparation and use thereof” (PI INDUSTRIES LTD., priority 2019, dated 2026).

Experiments:
Colletotrichum capsici = Colletotrichum capsici (anthracnose) in vitro test, radial growth on potato dextrose agar; format: cell-based; conditions: Colletotrichum truncatum, 168 h; 300 ppm in potato dextrose agar; 25° C., 60% relative humidity, seven days; read-out: control compared to the untreated check (radial growth)
Pyricularia oryzae = assay: microbe, parasite or virus in culture; format: cell-based; conditions: 168 h, read-out: control compared to the untreated check (radial growth)
Alternaria solani = Alternaria solani (early blight of tomato/potato) in vitro test, radial growth on potato dextrose agar; format: cell-based; conditions: 168 h, 300 ppm in potato dextrose agar, 25° C., 60% relative humidity, seven days, read-out: control compared to the untreated check (radial growth)
Rhizoctonia solani = Rhizoctonia solani (rice sheath blight/potato black scurf) in vitro test, radial growth on potato dextrose agar; format: cell-based; conditions: 168 h, 300 ppm in potato dextrose agar, 25° C., 60% relative humidity, seven days, read-out: control compared to the untreated check (radial growth)
[1] = tested on: Septoria lycopersici/Corynespora cassicola (CORYCA); assay: Septoria lycopersici/Corynespora cassicola (CORYCA) (leaf spot of tomato) in vitro test, radial growth on potato dextrose agar; format: cell-based; conditions: 168 h, 300 ppm in potato dextrose agar, 25° C., 70% relative humidity, seven days, read-out: control compared to the untreated check (radial growth)
Botrytis cinerea = Botrytis cinerea (gray mold) in vitro test, radial growth on potato dextrose agar; format: cell-based; conditions: 168 h, 300 ppm in potato dextrose agar, 22° C., 90% relative humidity, seven days, read-out: control compared to the untreated check (radial growth)
Phakopsora pachyrhizi = Phakopsora pachyrhizi test in soybean, preventive, in vivo on plants; conditions: in Glycine max, read-out: Efficacy (% control), disease severity compared to the untreated check

CCN(C)C=Nc1cc(F)cc(Nc2ccccc2F)c1C [Compound 19, N-ethyl-N′-(5-fluoro-3-((2-fluorophenyl)amino)-2-methylphenyl)-N-methylformimidamide]
≥ 70%: inhibition of growth at 300 ppm (Colletotrichum capsici) | inhibition of growth at 300 ppm (Pyricularia oryzae) | inhibition of growth at 300 ppm (Alternaria solani) | inhibition of growth at 300 ppm (Rhizoctonia solani) | inhibition of growth at 300 ppm [1] | inhibition of growth at 300 ppm (Botrytis cinerea)

CCN(C)C=Nc1cc(F)cc(Nc2ccccc2C)c1C [Compound 15, N-ethyl-N′-(5-fluoro-2-methyl-3-(o-tolylamino)phenyl)-N-methylformimidamide]
≥ 70%: inhibition of growth at 300 ppm (Colletotrichum capsici) | inhibition of growth at 300 ppm (Pyricularia oryzae) | inhibition of growth at 300 ppm (Alternaria solani) | inhibition of growth at 300 ppm (Rhizoctonia solani) | inhibition of growth at 300 ppm [1] | inhibition of growth at 300 ppm (Botrytis cinerea)

CCN(C)C=Nc1cc(F)cc(Nc2cc(C)cc(F)c2)c1C [Compound 114, N-ethyl-N′-(5-fluoro-3-((3-fluoro-5-methylphenyl)amino)-2-methylphenyl)-N-methylformimidamide]
≥ 70%: inhibition of growth at 300 ppm (Colletotrichum capsici) | pest or weed control at 500 ppm (Phakopsora pachyrhizi) | inhibition of growth at 300 ppm (Pyricularia oryzae) | inhibition of growth at 300 ppm (Alternaria solani) | inhibition of growth at 300 ppm [1]

CCN(C)C=Nc1cc(C)cc(Nc2ccccc2)c1Cl [Compound 9, N′-(2-chloro-5-methyl-3-(phenylamino)phenyl)-N-ethyl-N-methylformimidamide]
≥ 70%: inhibition of growth at 300 ppm (Colletotrichum capsici) | inhibition of growth at 300 ppm (Pyricularia oryzae) | inhibition of growth at 300 ppm (Alternaria solani) | inhibition of growth at 300 ppm (Rhizoctonia solani) | inhibition of growth at 300 ppm [1] | inhibition of growth at 300 ppm (Botrytis cinerea)

CCN(C)C=Nc1cc(F)cc(N(C)c2ccccc2)c1C [Compound 11, N-ethyl-N′-(5-fluoro-2-methyl-3-(methyl(phenyl)amino)phenyl)-N-methylformimidamide]
≥ 70%: inhibition of growth at 300 ppm (Colletotrichum capsici) | inhibition of growth at 300 ppm (Alternaria solani) | inhibition of growth at 300 ppm (Rhizoctonia solani) | inhibition of growth at 300 ppm [1] | inhibition of growth at 300 ppm (Botrytis cinerea)

CCN(C)C=Nc1cc(Cl)cc(Cc2ccc(Cl)c(F)c2)c1C [Compound 131, N′-(5-chloro-3-(4-chloro-3-fluorobenzyl)-2-methylphenyl)-N-ethyl-N-methylformimidamide]
≥ 70%: inhibition of growth at 300 ppm (Colletotrichum capsici) | pest or weed control at 500 ppm (Phakopsora pachyrhizi) | inhibition of growth at 300 ppm (Pyricularia oryzae) | inhibition of growth at 300 ppm (Alternaria solani) | inhibition of growth at 300 ppm (Rhizoctonia solani) | inhibition of growth at 300 ppm [1]

CCN(C)C=Nc1cc(C)cc(Cc2cccc(F)c2)c1Br [Compound 189, N′-(2-bromo-3-(3-fluorobenzyl)-5-methylphenyl)-N-ethyl-N-methylformimidamide]
≥ 70%: inhibition of growth at 300 ppm (Colletotrichum capsici) | pest or weed control at 500 ppm (Phakopsora pachyrhizi) | inhibition of growth at 300 ppm (Pyricularia oryzae) | inhibition of growth at 300 ppm (Alternaria solani) | inhibition of growth at 300 ppm (Rhizoctonia solani) | inhibition of growth at 300 ppm [1]

CCN(C)C=Nc1cc(C)cc(Cc2ccccc2C)c1Br [Compound 209, N′-(2-bromo-5-methyl-3-(2-methylbenzyl)phenyl)-N-ethyl-N-methylformimidamide]
≥ 70%: inhibition of growth at 300 ppm (Colletotrichum capsici) | pest or weed control at 500 ppm (Phakopsora pachyrhizi) | inhibition of growth at 300 ppm (Alternaria solani) | inhibition of growth at 300 ppm (Rhizoctonia solani) | inhibition of growth at 300 ppm [1]

CCN(C)C=Nc1cc(F)cc(Nc2cc(F)cc(Cl)c2)c1C [Compound 96, N′-(3-((3-chloro-5-fluorophenyl)amino)-5-fluoro-2-methylphenyl)-N-ethyl-N-methylformimidamide]
≥ 70%: inhibition of growth at 300 ppm (Colletotrichum capsici) | inhibition of growth at 300 ppm (Pyricularia oryzae) | inhibition of growth at 300 ppm (Alternaria solani) | inhibition of growth at 300 ppm (Rhizoctonia solani) | inhibition of growth at 300 ppm [1] | inhibition of growth at 300 ppm (Botrytis cinerea)

CCN(C)C=Nc1cc(C)cc(Nc2cccc(C)c2)c1Cl [Compound 36, N′-(2-chloro-5-methyl-3-(m-tolylamino)phenyl)-N-ethyl-N-methylformimidamide]
≥ 70%: inhibition of growth at 300 ppm (Colletotrichum capsici) | pest or weed control at 500 ppm (Phakopsora pachyrhizi) | inhibition of growth at 300 ppm (Pyricularia oryzae) | inhibition of growth at 300 ppm (Alternaria solani) | inhibition of growth at 300 ppm [1]

CCN(C)C=Nc1cc(C)cc(Nc2cc(C)ccc2Cl)c1Cl [Compound 115, N′-(2-chloro-3-((2-chloro-5-methylphenyl)amino)-5-methylphenyl)-N-ethyl-N-methylformimidamide]
≥ 70%: inhibition of growth at 300 ppm (Colletotrichum capsici) | pest or weed control at 500 ppm (Phakopsora pachyrhizi) | inhibition of growth at 300 ppm (Pyricularia oryzae) | inhibition of growth at 300 ppm (Alternaria solani) | inhibition of growth at 300 ppm [1]

CCN(C)C=Nc1cc(C)cc(Cc2ccccc2F)c1C [Compound 219, N-ethyl-N′-(3-(2-fluorobenzyl)-2,5-dimethylphenyl)-N-methylformimidamide]
≥ 70%: inhibition of growth at 300 ppm (Colletotrichum capsici) | pest or weed control at 500 ppm (Phakopsora pachyrhizi) | inhibition of growth at 300 ppm (Pyricularia oryzae) | inhibition of growth at 300 ppm (Alternaria solani) | inhibition of growth at 300 ppm (Rhizoctonia solani) | inhibition of growth at 300 ppm [1]

CCN(C)C=Nc1cc(C)cc(Nc2ccccc2C)c1Cl [Compound 24, N′-(2-chloro-5-methyl-3-(o-tolylamino)phenyl)-N-ethyl-N-methylformimidamide]
≥ 70%: inhibition of growth at 300 ppm (Colletotrichum capsici) | inhibition of growth at 300 ppm (Pyricularia oryzae) | inhibition of growth at 300 ppm (Alternaria solani) | inhibition of growth at 300 ppm (Rhizoctonia solani) | inhibition of growth at 300 ppm [1] | inhibition of growth at 300 ppm (Botrytis cinerea)

CCN(C)C=Nc1cc(F)cc(Nc2cc(C)ccc2Cl)c1C [Compound 113, N′-(3-((2-chloro-5-methylphenyl)amino)-5-fluoro-2-methylphenyl)-N-ethyl-N-methylformimidamide]
≥ 70%: inhibition of growth at 300 ppm (Colletotrichum capsici) | pest or weed control at 500 ppm (Phakopsora pachyrhizi) | inhibition of growth at 300 ppm (Pyricularia oryzae) | inhibition of growth at 300 ppm (Alternaria solani) | inhibition of growth at 300 ppm (Rhizoctonia solani) | inhibition of growth at 300 ppm [1]

CCN(C)C=Nc1cc(Cl)cc(Cc2cccc(Cl)c2)c1C [Compound 101, N′-(5-chloro-3-(3-chlorobenzyl)-2-methylphenyl)-N-ethyl-N-methylformimidamide]
≥ 70%: inhibition of growth at 300 ppm (Colletotrichum capsici) | pest or weed control at 500 ppm (Phakopsora pachyrhizi) | inhibition of growth at 300 ppm (Pyricularia oryzae) | inhibition of growth at 300 ppm (Alternaria solani) | inhibition of growth at 300 ppm [1]

CCN(C)C=Nc1cc(Cl)cc(N(C)c2cnccn2)c1C [Compound 213, N′-(5-chloro-2-methyl-3-(methyl(pyrazin-2-yl)amino)phenyl)-N-ethyl-N-methylformimidamide]
≥ 70%: inhibition of growth at 300 ppm (Colletotrichum capsici) | inhibition of growth at 300 ppm (Pyricularia oryzae) | inhibition of growth at 300 ppm (Alternaria solani) | inhibition of growth at 300 ppm (Rhizoctonia solani) | inhibition of growth at 300 ppm [1] | inhibition of growth at 300 ppm (Botrytis cinerea)

CCc1cccc(Nc2cc(C)cc(N=CN(C)CC)c2Cl)n1 [Compound 226, N′-(2-chloro-3-((6-ethylpyridin-2-yl)amino)-5-methylphenyl)-N-ethyl-N-methylformimidamide]
≥ 70%: inhibition of growth at 300 ppm (Colletotrichum capsici) | inhibition of growth at 300 ppm (Alternaria solani) | inhibition of growth at 300 ppm [1]

CCN(C)C=Nc1cc(F)cc(Nc2cccc(Cl)c2)c1C [Compound 37, N′-(3-((3-chlorophenyl)amino)-5-fluoro-2-methylphenyl)-N-ethyl-N-methylformimidamide]
≥ 70%: inhibition of growth at 300 ppm (Colletotrichum capsici) | inhibition of growth at 300 ppm (Pyricularia oryzae) | inhibition of growth at 300 ppm (Alternaria solani) | inhibition of growth at 300 ppm (Rhizoctonia solani) | inhibition of growth at 300 ppm [1] | inhibition of growth at 300 ppm (Botrytis cinerea)

CCN(C)C=Nc1cc(C)cc(Nc2cccc(C)c2F)c1Cl [Compound 123, N′-(2-chloro-3-((2-fluoro-3-methylphenyl)amino)-5-methylphenyl)-N-ethyl-N-methylformimidamide]
≥ 70%: inhibition of growth at 300 ppm (Colletotrichum capsici) | pest or weed control at 500 ppm (Phakopsora pachyrhizi) | inhibition of growth at 300 ppm (Pyricularia oryzae) | inhibition of growth at 300 ppm (Alternaria solani) | inhibition of growth at 300 ppm [1] | inhibition of growth at 300 ppm (Botrytis cinerea)

CCN(C)C=Nc1cc(C)cc(Nc2ccccc2F)c1Cl [Compound 23, N′-(2-chloro-3-((2-fluorophenyl)amino)-5-methylphenyl)-N-ethyl-N-methylformimidamide]
≥ 70%: inhibition of growth at 300 ppm (Colletotrichum capsici) | pest or weed control at 500 ppm (Phakopsora pachyrhizi) | inhibition of growth at 300 ppm (Pyricularia oryzae) | inhibition of growth at 300 ppm (Alternaria solani) | inhibition of growth at 300 ppm (Rhizoctonia solani) | inhibition of growth at 300 ppm [1]

CCN(C)C=Nc1cc(Cl)cc(Cc2cccc(F)c2)c1C [Compound 102, N′-(5-chloro-3-(3-fluorobenzyl)-2-methylphenyl)-N-ethyl-N-methylformimidamide]
≥ 70%: inhibition of growth at 300 ppm (Colletotrichum capsici) | pest or weed control at 500 ppm (Phakopsora pachyrhizi) | inhibition of growth at 300 ppm (Pyricularia oryzae) | inhibition of growth at 300 ppm (Alternaria solani) | inhibition of growth at 300 ppm (Rhizoctonia solani) | inhibition of growth at 300 ppm (Botrytis cinerea)

CCN(C)C=Nc1cc(C)cc(N(C)c2ncc(Cl)cc2C)c1Cl [Compound 118, N′-(2-chloro-3-((5-chloro-3-methylpyridin-2-yl)(methyl)amino)-5-methylphenyl)-N-ethyl-N-methylformimidamide]
≥ 70%: inhibition of growth at 300 ppm (Colletotrichum capsici) | inhibition of growth at 300 ppm (Pyricularia oryzae) | inhibition of growth at 300 ppm (Alternaria solani) | inhibition of growth at 300 ppm [1] | inhibition of growth at 300 ppm (Botrytis cinerea)

CCN(C)C=Nc1cc(Cl)cc(Cc2ccccc2Br)c1C [Compound 90, N′-(3-(2-bromobenzyl)-5-chloro-2-methylphenyl)-N-ethyl-N-methylformimidamide]
≥ 70%: inhibition of growth at 300 ppm (Colletotrichum capsici) | pest or weed control at 500 ppm (Phakopsora pachyrhizi) | inhibition of growth at 300 ppm (Pyricularia oryzae) | inhibition of growth at 300 ppm (Alternaria solani) | inhibition of growth at 300 ppm (Rhizoctonia solani) | inhibition of growth at 300 ppm (Botrytis cinerea)
